According to US11596639B2, “Substituted indole Mcl-1 inhibitors” (Vanderbilt University, priority 2016, dated 2023):
pKi: −log10 of the molar value. Where two headings read alike, the source gives them in different places.

Legend:
Mcl-1 = Mcl-1 (Homo sapiens (Human), UniProt Q07820); test: Fluorescence polarization anisotropy (FPA) competition assay, FITC-Bak or FITC-Bim BH3 peptide; type: binding; conditions: read-out: Ki for Inhibition of Mcl-1 by FPA assay
[1] = tested on: H929 human cancer cell lines; test: Cellular viability / proliferation (Cell TiterGlo, 72 h); type: cell-based
How it was run: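 H929 cells plated at 1,000/well in 10% FBS medium received a 2-fold serial compound dilution (top 50 μM, DMSO <1%) 24 h later. After 72 h, viability was read by CellTiter-Glo luminescence. IC50 came from a four-parameter fit.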

[2] = Homo sapiens, NCI-H929, 72 h, read-out: GI50 on cellular proliferation of H929 human cancer cell lines, H929 cells, 72 h, Cell TiterGlo, 10% FBS

Mcl-1, sequence (Q07820 172-327): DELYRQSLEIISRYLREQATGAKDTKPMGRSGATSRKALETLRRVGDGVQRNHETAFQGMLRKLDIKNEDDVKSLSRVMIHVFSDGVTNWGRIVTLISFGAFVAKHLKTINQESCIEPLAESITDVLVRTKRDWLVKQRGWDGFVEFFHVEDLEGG

Row | SMILES | pKi (Mcl-1) | GI50 [1, 2] [nM] | GI50 ([1]; H929 cells, 72 h, Cell TiterGlo, 10% FBS, read-out: GI50 on cellular proliferation of H929 human cancer cell lines) [nM]
1 | Cc1cc(OCCCc2c3n(c4c(-c5c(C)nn(C)c5C)c(Cl)ccc24)[C@H](C)CN(c2cn(C)c4ccc(-c5noc(=O)[nH]5)cc24)C3=O)cc(C)c1Cl [Example 442, (R)-3-(3-(7-Chloro-10-(3-(4-chloro-3,5-dimethylphenoxy)propyl)-4-methyl-1-oxo-6-(1,3,5-trimethyl-1H-pyrazol-4-yl)-3,4-dihydropyrazino[1,2-a]indol-2(1H)-yl)-1-methyl-1H-indol-5-yl)-1,2,4-oxadiazol-5(4H)-one] | 8.64 | 230 | 
2 | Cc1cc(OCCCc2c3n(c4c(-c5c(C)nn(C)c5C)c(Cl)ccc24)[C@H](C)CN(c2cccc4cc(C(=O)O)n(C(C)c5ccccn5)c24)C3=O)cc(C)c1Cl (stereo partly drawn) [Example 386, 7-((R)-7-Chloro-10-(3-(4-chloro-3,5-dimethylphenoxy)propyl)-4-methyl-1-oxo-6-(1,3,5-trimethyl-1H-pyrazol-4-yl)-3,4-dihydropyrazino[1,2-a]indol-2(1H)-yl)-1-(1-(pyridin-2-yl)ethyl)-1H-indole-2-carboxylic acid] | 8.49 | 3100 | 
3 | Cc1cc(OCCCc2c3n(c4c(-c5c(C)nn(C)c5C)c(Cl)ccc24)[C@H](C)CN(c2cccc4c2C(=O)CC4)C3=O)cc(C)c1Cl [Example 195, (R)-7-Chloro-10-(3-(4-chloro-3,5-dimethylphenoxy)propyl)-4-methyl-2-(3-oxo-2,3-dihydro-1H-inden-4-yl)-6-(1,3,5-trimethyl-1H-pyrazol-4-yl)-3,4-dihydropyrazino[1,2-a]indol-1(2H)-one] | 8.44 | 1800 | 
4 | Cc1cc(OCCCc2c3n(c4c(-c5c(C)ncnc5C)c(Cl)ccc24)CCCN(c2cccc4cc(C(=O)O)n(Cc5ccccn5)c24)C3=O)cc(C)c1Cl [Example 279, 7-(8-Chloro-11-(3-(4-chloro-3,5-dimethylphenoxy)propyl)-7-(4,6-dimethylpyrimidin-5-yl)-1-oxo-4,5-dihydro-1H-[1,4]diazepino[1,2-a]indol-2(3H)-yl)-1-(pyridin-2-ylmethyl)-1H-indole-2-carboxylic acid] | 9.00 | 3300 | 
5 | Cc1cc(OCCCc2c3n(c4c(-c5c(C)nn(C)c5C)c(Cl)ccc24)[C@H](C)CN(c2cn(C)c4ccccc24)C3=O)cc(C)c1Cl [Example 288, (R)-7-chloro-10-(3-(4-chloro-3,5-dimethylphenoxy)propyl)-4-methyl-2-(1-methyl-1H-indol-3-yl)-6-(1,3,5-trimethyl-1H-pyrazol-4-yl)-3,4-dihydropyrazino[1,2-a]indol-1(2H)-one] | 8.52 | 8400 | 
6 | Cc1cc(OCCCc2c3n(c4c(-c5c(C)nn(C)c5C)c(Cl)ccc24)[C@H](C)CN(c2cn(C)c4ccc(-c5ccn(C)n5)cc24)C3=O)cc(C)c1Cl [Example 388, (R)-7-Chloro-10-(3-(4-chloro-3,5-dimethylphenoxy)propyl)-4-methyl-2-(1-methyl-5-(1-methyl-1H-pyrazol-3-yl)-1H-indol-3-yl)-6-(1,3,5-trimethyl-1H-pyrazol-4-yl)-3,4-dihydropyrazino[1,2-a]indol-1(2H)-one] | 8.82 | 330 | 
7 | COCCOc1ccc(N2C[C@@H](C)n3c(c(CCCOc4cc(C)c(Cl)c(C)c4)c4ccc(Cl)c(-c5c(C)nn(C)c5C)c43)C2=O)c2cc(C(=O)O)n(C)c12 [Example 323, (M, R)-4-(7-Chloro-10-(3-(4-chloro-3,5-dimethylphenoxy)propyl)-4-methyl-1-oxo-6-(1,3,5-trimethyl-1H-pyrazol-4-yl)-3,4-dihydropyrazino[1,2-a]indol-2(1H)-yl)-7-(2-methoxyethoxy)-1-methyl-1H-indole-2-carboxylic acid] | > 9.00 |  | 1500
8 | Cc1cc(OCCCc2c3n(c4c(-c5c(C)nn(C)c5C)c(Cl)ccc24)[C@H](C)CN(c2cn(C)c4ccc(-c5nnco5)cc24)C3=O)cc(C)c1Cl [Example 346, (R)-7-Chloro-10-(3-(4-chloro-3,5-dimethylphenoxy)propyl)-4-methyl-2-(1-methyl-5-(1,3,4-oxadiazol-2-yl)-1H-indol-3-yl)-6-(1,3,5-trimethyl-1H-pyrazol-4-yl)-3,4-dihydropyrazino[1,2-a]indol-1(2H)-one] | 8.29 | 1600 | 
9 | Cc1cc(OCCCc2c3n(c4c(-c5c(C)nn(C)c5C)c(Cl)ccc24)[C@H](C)CN(c2cn(C)c4c(C)c(C(=O)O)ccc24)C3=O)cc(C)c1Cl [Example 250, (R)-3-(7-Chloro-10-(3-(4-chloro-3,5-dimethylphenoxy)propyl)-4-methyl-1-oxo-6-(1,3,5-trimethyl-1H-pyrazol-4-yl)-3,4-dihydropyrazino[1,2-a]indol-2(1H)-yl)-1,7-dimethyl-1H-indole-6-carboxylic acid] | > 9.00 | 480 | 
10 | Cc1cc(OCCCc2c3n(c4c(-c5c(C)nn(C)c5C)c(Cl)ccc24)[C@H](C)CN(c2cn(C)c4ccc(C(=O)N5CCCC5)cc24)C3=O)cc(C)c1Cl [Example 290, (4R)-7-chloro-10-[3-(4-chloro-3,5-dimethyl-phenoxy)propyl]-4-methyl-2-[1-methyl-5-(pyrrolidine-1-carbonyl)indol-3-yl]-6-(1,3,5-trimethylpyrazol-4-yl)-3,4-dihydropyrazino[1,2-a]indol-1-one] | 7.92 | 5300 | 
11 | Cc1cc(OCCCc2c3n(c4c(-c5c(C)nn(C)c5C)c(Cl)ccc24)[C@H](C)CN(c2cc(C(=O)O)nc4c2ccn4C)C3=O)cc(C)c1Cl [Example 167, (R)-4-(7-chloro-10-(3-(4-chloro-3,5-dimethylphenoxy)propyl)-4-methyl-1-oxo-6-(1,3,5-trimethyl-1H-pyrazol-4-yl)-3,4-dihydropyrazino[1,2-a]indol-2(1H)-yl)-1-methyl-1H-pyrrolo[2,3-b]pyridine-6-carboxylic acid] | > 9.00 | 4100 | 
12 | Cc1cc(N2C[C@@H](C)n3c(c(CCCOc4cc(C)c(Cl)c(C)c4)c4ccc(Cl)c(-c5c(C)ncnc5C)c43)C2=O)c2c(c1)c(C)c(C(=O)O)n2C [Example 339, (R)-7-(7-Chloro-10-(3-(4-chloro-3,5-dimethylphenoxy)propyl)-6-(4,6-dimethylpyrimidin-5-yl)-4-methyl-1-oxo-3,4-dihydropyrazino[1,2-a]indol-2(1H)-yl)-1,3,5-trimethyl-1H-indole-2-carboxylic acid] | > 9.00 | 320 | 
13 | CC(=O)N1CCN(S(=O)(=O)c2ccc3c(c2)c(N2C[C@@H](C)n4c(c(CCCOc5cc(C)c(Cl)c(C)c5)c5ccc(Cl)c(-c6c(C)nn(C)c6C)c54)C2=O)cn3C)CC1 [Example 278, (R)-2-(5-((4-acetylpiperazin-1-yl)sulfonyl)-1-methyl-1H-indol-3-yl)-7-chloro-10-(3-(4-chloro-3,5-dimethylphenoxy)propyl)-4-methyl-6-(1,3,5-trimethyl-1H-pyrazol-4-yl)-3,4-dihydropyrazino[1,2-a]indol-1(2H)-one] | 8.27 | 1500 | 
14 | Cc1cc(OCCCc2c3n(c4c(-c5c(C)nn(C)c5C)c(Cl)ccc24)[C@H](C)CN(c2cn(CCN4CCOCC4)c4cc(C(=O)O)ccc24)C3=O)cc(C)c1Cl [Example 292, (R)-3-(7-chloro-10-(3-(4-chloro-3,5-dimethylphenoxy)propyl)-4-methyl-1-oxo-6-(1,3,5-trimethyl-1H-pyrazol-4-yl)-3,4-dihydropyrazino[1,2-a]indol-2(1H)-yl)-1-(2-morpholinoethyl)-1H-indole-6-carboxylic acid] | > 9.00 | 690 | 
15 | COCCn1cc(C(=O)O)c2c(N3C[C@@H](C)n4c(c(CCCOc5cc(C)c(Cl)c(C)c5)c5ccc(Cl)c(-c6c(C)nn(C)c6C)c54)C3=O)cccc21 [Example 181, 4-[(4R)-7-chloro-10-[3-(4-chloro-3,5-dimethyl-phenoxy)propyl]-4-methyl-1-oxo-6-(1,3,5-trimethylpyrazol-4-yl)-3,4-dihydropyrazino[1,2-a]indol-2-yl]-1-(2-methoxyethyl)indole-3-carboxylic acid] | 8.85 | 2000 | 
16 | Cc1cc(OCCCc2c3n(c4c(-c5c(C)nn(C)c5C)c(Cl)ccc24)[C@H](C)CN(c2ccnc4ccc(-c5nn[nH]n5)cc24)C3=O)cc(C)c1Cl [Example 414, (R)-2-(6-(2H-Tetrazol-5-yl)quinolin-4-yl)-7-chloro-10-(3-(4-chloro-3,5-dimethylphenoxy)propyl)-4-methyl-6-(1,3,5-trimethyl-1H-pyrazol-4-yl)-3,4-dihydropyrazino[1,2-a]indol-1(2H)-one] | > 9.00 | 1400 | 
17 | CC[C@@H]1Cn2c(c(CCCOc3cc(C)c(Cl)c(C)c3)c3ccc(Cl)c(-c4c(C)nn(C)c4C)c32)C(=O)N1c1ccc(C(=O)O)cc1 [Example 23, (R)-4-(7-chloro-10-(3-(4-chloro-3,5-dimethylphenoxy)propyl)-3-ethyl-1-oxo-6-(1,3,5-trimethyl-1H-pyrazol-4-yl)-3,4-dihydropyrazino[1,2-a]indol-2(1H)-yl)benzoic acid] | > 9.00 | 4900 | 
18 | Cc1cc(OCCCc2c3n(c4c(-c5c(C)nn(C)c5C)c(Cl)ccc24)[C@H](C)CN(c2ccnc4c(C(=O)O)cccc24)C3=O)cc(C)c1Cl [Example 253, (R)-4-(7-Chloro-10-(3-(4-chloro-3,5-dimethylphenoxy)propyl)-4-methyl-1-oxo-6-(1,3,5-trimethyl-1H-pyrazol-4-yl)-3,4-dihydropyrazino[1,2-a]indol-2(1H)-yl)quinoline-8-carboxylic acid] | 8.92 | 1100 | 
19 | Cc1cc(OCCCc2c3n(c4c(-c5c(C)ncnc5C)c(Cl)ccc24)[C@H](C)CN(c2nn(C)c4cccc(C(=O)O)c24)C3=O)cc(C)c1Cl [Example 273, 3-[(4R)-7-chloro-10-[3-(4-chloro-3,5-dimethyl-phenoxy)propyl]-6-(4,6-dimethylpyrimidin-5-yl)-4-methyl-1-oxo-3,4-dihydropyrazino[1,2-a]indol-2-yl]-1-methyl-indazole-4-carboxylic acid] | > 9.00 | 4100 | 
